This note sets out measurements from patent US20240343747A1, “Heteroaryl compounds as inhibitors of TYK2, composition and application thereof” (Accro Bioscience (HK) Limited, priority 2021, published 2024).

Data set [1] concerns the target TYK2 JH2 (Homo sapiens (Human), UniProt P29597). Put plainly: Competitive binding assay (kinase-tagged phage, qPCR), TYK2 JH2. The method, then: For most assays, kinase-tagged T7 phage strains were prepared in an E. coli host derived from the BL21 strain. E. coli were grown to log-phase and infected with T7 phage and incubated with shaking at 32° C. until lysis. The lysates were centrifuged and filtered to remove cell debris. The remaining kinases were produced in HEK-293 cells and subsequently tagged with DNA for qPCR detection. Streptavidin coated magnetic beads were treated with biotinylated small molecule ligands for 30 minutes at room temperature to generate affinity resins for kinase assays. The liganded beads were blocked with excess biotin and washed with blocking buffer (SeaBlock (Pierce), 1% BSA, 0.05% Tween 20, 1 mM DTT) to remove unbound ligand and to reduce non-specific binding. […] Test compounds were prepared as 111X stocks in 100% DMSO. Dissociation constants (Kds) were determined using an 11-point 3-fold compound dilution series with three DMSO control points. All compounds for Kd measurements are distributed by acoustic transfer (non-contact dispensing) in 100% DMSO. The compounds were then diluted directly into the assays such that the final concentration of DMSO was 0.9%. All reactions performed in polypropylene 384-well plate. Each was a final volume of 0.02 ml. The assay plates were incubated at room temperature with shaking for 1 hour and the affinity beads were washed with wash buffer (1×PBS, 0.05% Tween 20). The beads were then re-suspended in elution buffer (1×PBS, 0.05% Tween 20, 0.5 μM nonbiotinylated affinity ligand) and incubated at room temperature with shaking for 30 minutes. The kinase concentration in the eluates was measured by qPCR.
An 11-point 3-fold serial dilution of each test compound was prepared in 100% DMSO at 100× final test concentration and subsequently diluted to 1× in the assay (final DMSO concentration=1%). Most Kds were determined using a compound top concentration=30,000 nM. If the initial Kd determined was <0.5 nM (the lowest concentration tested), the measurement was repeated with a serial dilution starting at a lower top concentration.
Binding constants (Kds) were calculated with a standard dose-response curve using the Hill equation: […]
The Hill Slope was set to −1.
Curves were fitted using a non-linear least square fit with the Levenberg-Marquardt algorithm.
On the technique in general: Quantitative PCR measures a nucleic acid by following its amplification.

Data set [2] is described as follows: Plasma protein binding test, human. The format is in vitro ADME. The following applies: for plasma protein binding (in words): conclusion from Table 7, all species tested; for fraction unbound at 4 h, 2 μM: human plasma. How it is done:
• 1. Test compound and control compound were dissolved in dimethyl sulfoxide (DMSO) to achieve 10 mM stock solutions. DMSO working solutions were prepared at 400 μM. To prepare the loading matrix, compound working solutions (5 μL) were added in a 1:200 ratio to blank matrix (995 μL), and mixed thoroughly. • 2. To prepare the time zero (TO) samples to be used for recovery determination, 50 μL aliquots of loading matrix were transferred in triplicate to the sample collection plate. The samples were immediately matched with opposite blank buffer to obtain a final volume of 100 μL of 1:1 matrix/dialysis buffer (v/v) in each well. 500 μL of stop solution were added to these TO samples. They were then stored at 2-8° C. pending further processes along with other post-dialysis samples. • 3. To load the dialysis device, an aliquot of 150 μL of the loading matrix was transferred to the donor side of each dialysis well in triplicate, and 150 μL of the dialysis buffer was loaded to the receiver side of the well. The dialysis plate was placed in a humidified incubator at 37° C. with 5% CO2 on a shaking platform that rotated slowly (about 100 rpm) for 4 hours • 4. At the end of the dialysis, aliquots of 50 μL of samples were taken from both the buffer side and the matrix side of the dialysis device. These samples were transferred into new 96-well plates. Each sample was mixed with an equal volume of opposite blank matrix (buffer or matrix) to reach a final volume of 100 μL of 1:1 matrix/dialysis buffer (v/v) in each well. All samples were further processed by adding 500 μL of stop solution containing internal standards. The mixture was vortexed and centrifuged at 4000 rpm for about 20 minutes. An aliquot of 100 μL of supernatant of all the samples was then removed for LC-MS/MS analysis • 5. The single blank samples were prepared by transferring […] of blank matrix to a 96 well plate and adding 50 μL of blank PBS buffer to each well. The blank plasma must match the species of plasma used in the plasma side of the well. Then the matrix-matched samples were further processed by adding 500 μL of stop solution containing internal standards, following the same sample processing method as the dialysis samples.
The % Unbound and % Bound were calculated using the following equations:
% Unbound=100×[F]/[T]; % Bound=100−% Unbound
Where [F] is the analyte concentration or peak area ratio of analyte/internal standard on the buffer (receiver) side of the membrane, [T] is the analyte concentration or peak area ratio of analyte/internal standard on the matrix (donor) side of the membrane, and [T0] is the analyte concentration or the peak area ratio of analyte/internal standard in the loading matrix sample at time zero.

The target in data set [3] is hERG channel (Homo sapiens (Human), UniProt Q12809). Briefly: cell-based. The method, then:
Chinese hamster ovary (CHO) cell line, CHO-hERG cells were used in this study. CHO-hERG cells were derived from Sophion Biosciences Inc. (Ballerup, Denmark) in Suzhou, China. The cell reserve fluid is frozen in liquid nitrogen tanks. Each batch of stored cell fluid is tested for mycoplasma contamination. The cells were no longer used after 30 generations.
The whole cell patch clamp technique was used to record hERG current at room temperature. The patch-clamp amplifier outputs signals through […] conversion and 2.9 KHz low-pass filtering. Data records were collected by Patchmaster Pro software.
Cells were planted in a cell recording tank and placed on an inverted microscope platform. One cell in the recording tank was randomly selected for experiment. The perfusion system was fixed on an inverted microscope platform and cells were continuously irrigated with ECS.
Manual patch clamp recording microelectrode was prepared with capillary glass tube, which was filled with intracellular fluid. On the day of the patch clamp test, the electrodes were prepared using a borosilicate glass tube (GC150TF-10, Harvard Apparatus Co. UK). The resistance is between 2-5 MΩ after the electrode is filled with ICS.
The clamping voltage was −80 mV, and the first step was depolarized to +60 mV for 850 ms to open the hERG channel. The voltage is then set to −50 mV and maintained for 1275 ms, resulting in a rebound current or tail current, the peak of which is measured and used for analysis. Finally, the voltage is restored to the clamping voltage (−80 mV). During the test, the command voltage program was repeated every 15 s.
At the beginning of recording the perfusion of the solvent control working solution, the test substance/positive control working solution to be tested can be poured after monitoring the tail current peak until more than 3 scanning curves are stable, until the inhibition of the test substance/positive control working solution to the hERG current peak reaches a stable state. Generally, the most recent three consecutive peak values of the current curve basically coincide as a criterion to judge whether the state is stable. After reaching a stable state, continue to pour one concentration of the test sample. One or more test subjects/positive controls, or multiple concentrations of the same drug, can be tested on a cell, and the different test subjects/positive controls need to be rinsed with a solvent control working fluid until the hERG current returns to more than 80% of its pre-drug level.
The concentration of positive control cisapride was 0.1 μM, and two cells were repeated.

Sequence of TYK2 JH2 (P29597 589-875): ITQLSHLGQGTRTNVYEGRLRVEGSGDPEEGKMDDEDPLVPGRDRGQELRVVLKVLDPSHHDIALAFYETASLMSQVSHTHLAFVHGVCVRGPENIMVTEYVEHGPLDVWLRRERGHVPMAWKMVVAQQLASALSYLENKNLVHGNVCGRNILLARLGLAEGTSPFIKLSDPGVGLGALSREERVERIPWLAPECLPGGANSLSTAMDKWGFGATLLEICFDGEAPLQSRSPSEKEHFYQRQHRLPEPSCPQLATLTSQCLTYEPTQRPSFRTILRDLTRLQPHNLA
Sequence of hERG channel (Q12809 whole entry): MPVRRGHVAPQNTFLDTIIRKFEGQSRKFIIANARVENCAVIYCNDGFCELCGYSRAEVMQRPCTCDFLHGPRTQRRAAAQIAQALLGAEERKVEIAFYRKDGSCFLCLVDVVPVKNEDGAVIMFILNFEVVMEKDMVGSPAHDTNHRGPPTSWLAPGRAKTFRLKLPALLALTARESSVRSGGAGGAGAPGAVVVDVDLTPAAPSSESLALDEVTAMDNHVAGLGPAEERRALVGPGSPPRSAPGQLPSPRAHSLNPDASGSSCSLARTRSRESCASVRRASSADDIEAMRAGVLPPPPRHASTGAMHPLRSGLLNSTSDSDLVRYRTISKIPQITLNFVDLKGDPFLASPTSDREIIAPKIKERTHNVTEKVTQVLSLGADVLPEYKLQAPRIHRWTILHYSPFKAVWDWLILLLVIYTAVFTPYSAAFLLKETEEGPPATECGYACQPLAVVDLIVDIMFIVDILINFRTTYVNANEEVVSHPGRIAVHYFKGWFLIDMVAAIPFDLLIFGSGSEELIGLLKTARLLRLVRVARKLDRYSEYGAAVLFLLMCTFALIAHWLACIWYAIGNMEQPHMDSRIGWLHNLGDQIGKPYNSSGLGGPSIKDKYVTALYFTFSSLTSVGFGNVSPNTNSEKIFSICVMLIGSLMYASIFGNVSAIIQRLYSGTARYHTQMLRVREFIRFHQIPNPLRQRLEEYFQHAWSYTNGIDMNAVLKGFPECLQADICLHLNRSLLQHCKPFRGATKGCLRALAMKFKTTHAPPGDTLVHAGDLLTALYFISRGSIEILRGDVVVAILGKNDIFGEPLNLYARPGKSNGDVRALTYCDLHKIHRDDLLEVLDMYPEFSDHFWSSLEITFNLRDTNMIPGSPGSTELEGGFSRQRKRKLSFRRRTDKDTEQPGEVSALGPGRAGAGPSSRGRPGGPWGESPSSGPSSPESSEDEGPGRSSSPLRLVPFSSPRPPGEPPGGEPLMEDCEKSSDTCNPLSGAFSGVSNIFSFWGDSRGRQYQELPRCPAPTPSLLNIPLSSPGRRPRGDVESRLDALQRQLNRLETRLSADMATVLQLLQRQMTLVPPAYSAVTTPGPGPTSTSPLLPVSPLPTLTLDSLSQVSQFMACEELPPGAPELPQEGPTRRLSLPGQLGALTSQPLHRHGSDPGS

As usually defined, the Kd is the equilibrium constant for the complex coming apart. A high value points to weaker binding. By fraction unbound is commonly meant free concentration divided by total concentration. Higher therefore signals weak binding. A word on the IC50: it is the concentration that inhibits the measured activity by half. Low readings indicate greater potency, high ones weaker potency. In data set [1], `CCC(=O)c1cnc(NC(=O)C2CC2)cc1Nc1cccc(-c2cc(P(C)(C)=O)n(C)n2)c1OC` [Compound B2, N-(4-((3-(5-(dimethylphosphoryl)-1-methyl-1H-pyrazol-3-yl)-2-methoxyphenyl)amino)-5-propionylpyridin-2-yl)cyclopropanecarboxamide] had a Kd of 0.043 nM. In addition, in data set [2], the “plasma protein binding (in words)” value is “moderate to high” and the fraction unbound at 4 h, 2 μM is 0.048. Moreover, in data set [3], the IC50 is more than 30000 nM and the “inhibition on hERG channel (in words)” value is given as “no inhibition”.
On to `[2H]C([2H])([2H])n1nc(-c2cccc(Nc3cc(NC(=O)C4CC4)ncc3C(=O)CC)c2OC)cc1P(C)(C)=O` [Compound B22], for which the Kd in data set [1] was determined as 0.063 nM. For the same compound, in data set [2], the “plasma protein binding (in words)” value is on record as “moderate to high” and the fraction unbound at 4 h, 2 μM is 0.051. In addition, in data set [3], the IC50 was more than 30000 nM and the “inhibition on hERG channel (in words)” value was “no inhibition”.
In data set [1], `CCC(=O)c1cnc(NC(=O)C2CC2)cc1Nc1cccc(-c2cc(P(=O)(C3CC3)C3CC3)n(C)n2)c1OC` [Compound B37, N-(4-((3-(5-(dicyclopropylphosphoryl)-1-methyl-1H-pyrazol-3-yl)-2-methoxyphenyl)amino)-5-propionylpyridin-2-yl)cyclopropanecarboxamide] returned a Kd of 0.044 nM. In data set [3], the 50% inhibitory concentration (IC50) is more than 30000 nM and the “inhibition on hERG channel (in words)” value is “no inhibition”.
For the compound `[2H]C([2H])([2H])NC(=O)c1nnc(NC(=O)C2CC2)cc1Nc1cccc(-c2cc(P(=O)(C3CC3)C3CC3)n(C)n2)c1OC` [Compound B41, 6-(cyclopropanecarboxamido)-4-((3-(5-(dicyclopropylphosphoryl)-1-methyl-1H-pyrazol-3-yl)-2-methoxyphenyl)amino)-N-(methyl-d3)pyridazine-3-carboxamide], in data set [2], the “plasma protein binding (in words)” value is recorded as “moderate to high” and the fraction unbound at 4 h, 2 μM was 0.084. Moreover, in data set [3], the IC50 is more than 30000 nM and the “inhibition on hERG channel (in words)” value is recorded as “no inhibition”.
